# Laboratory results reported in paper PMC9544108 (Chemmedchem, 2022).
# Numbered stars: 1 amine (or outer) side, 2 acyl side, 3 side chain; on linkers, the order of the positions; unused ones are H or OH. Square brackets hold non-standard residues; d marks the D form. Peptide text beside a SMILES is read from it. γGlu = O=C(O)[C@H](CCC(=O)[*:2])N[*:1]; βAsp = O=C(O)[C@H](CC(=O)[*:2])N[*:1]; Cya = N[C@@H](CS(=O)(=O)O)C(=O)O
# Key:
# HT-29 cells [1] = settings: HT-29, 0.02-1.0 mM, 23 h, crystal violet, no Pb
# Pb-poisoned HT-29 cells [2] = assay: recovery assay of Pb-poisoned cells (crystal violet); assay type: cell-based, human; settings: HT-29, Pb(NO3)2 0.2 mM, further 23 h; for recovery of Pb-poisoned cells, in words: compound 0.02-1 mM added 1 h later; for viability of Pb-poisoned cells relative to the negative control (recovery): peptide added 1 h later, up to 1 mM (5 equiv.), at least 3 independent experiments
# Method: Human HT‐29 cells were used to investigate the peptides′ detoxification capabilities.[17, 18, 22] Adhered cells were poisoned with Pb(NO3)2 (200 μM) and 1 h later treated with various concentrations of peptides[28] and of the benchmark drugs, ranging from 20 μM to 1 mM that are equal to 0.1–5 equivalents compared with the Pb(II) concentration. After an incubation of 23 h, the cells were washed and quantified with the crystal violet assay.[22, 29] Each experiment included both positive and negative controls, which were either cells left untreated with both metal ions and peptides or only poisoned with Pb(NO3)2, respectively. Each dataset was then compared to the negative control to report the peptide recovery abilities (Figures 3A–B and S2).
# LCMS (ESI) Rt = 0.6 min, observed as [M+H]+
# HT-29 cells were chosen as a representative human cell-line due to their high Pb sensitivity and as their medium, RPMI-1640, is compatible with Pb(II), inhibiting metal precipitation.
# HT-29 cells were grown in 25 mM HEPES RPMI -1640 medium, supplemented with 1% L- […]
# 37 °C and 5% CO2. 96-well plates were prepared such that every well contain ed 10,000 cells in […]
# concentration 0.2 mM). 10 µL of H2O were added to the positive control wells. 60 min after the […]
# (which are 0.1, 0.25, 0.5, 1, 2 and 5 equivalents, respectively). To the positive control wells containing no metal and the negative control wells containing metal but no peptides, 10 µL of H2O were added, respectively. Each condition was performed in triplicates. […]
# gently shaken (50 rpm) for 20 min. […]
# dye was observed and allowed to dry overnight.
# Recovery% = A[PepX]−A[blank] × 100% (S4)
# A[blank] – absorbance of an empty well
# Each experiment was performed on three independent repeats. Values are mean ± SD. […]
# control for the recovery). Values are mean ± SD of at least 3 repeats. […]
# and 1.0 mM. […] Each condition was […]
# Pb-poisoned HT-29 cells [3] = assay: ICP-MS Pb content of cells and supernatant (mode of action); assay type: cell-based, human; settings: for SN/C, ratio of Pb content in ppb in supernatants and cells: ICP-MS, three independent experiments
# Method: In order to determine the mode of action of 8, by which it enables to achieve a high recovery of Pb‐poisoned HT‐29 cells, inductively coupled plasma mass spectrometry (ICP‐MS) was employed to determine the Pb content of the Pb‐poisoned cells and their respective supernatant. First, HT‐29 cells were poisoned with Pb(NO3)2 (0.2 mM) and the Pb content in the cells and in the medium was determined after 1 and 24 h.[22] The measurement after 1 h was performed to assess the Pb distribution at the time of peptide addition during the recovery experiment and the one after 24 h to reveal the distribution resulting without intervention. At both times, the fraction of intracellular Pb was low and most of the toxic metal was in the medium (Table S10). […] Next, we added 8 to the cells before and after poisoning them with Pb(II) ions to assess whether 8 prevents Pb(II) ions from entering the cells, expels them from the cells or transforms Pb(II) into a non‐toxic complex locally. […] Since treating Pb‐poisoned cells with 8 enables higher viability, despite the fact that their relative intracellular Pb content is elevated, we hypothesize that Pb crosses the cellular membrane from outside as a membrane permeable, non‐toxic Pb(II)‐8 complex.
# Cells with Pb(II) ions only were analyzed after 1 or 24 h incubation with the metal salt as reference values:
# To all wells, 10 µL of 2.2 mM Pb(NO3)2 were added (final concentration 0.2 mM) and the cells were incubated at 37 °C, and 5% CO2 for 1 h, after which samples were prepared for analysis by […]
# Cells treated with 8 were analyzed in two sets that differed in the order of peptide and metal salt […]
# After respective incubation times, the supernatants were homogenized by gently pipetting up and down and 50 µL were transferred and digested with 100 µL HNO3 (70%) for 1 h in a 15 mL tube. […] Pb in the supernatant was then quantified using ICP-MS.
# Since the cells are adherent, residual supernatant was removed from each well and the cells were washed with RPMI (3x200 µL). […] Pb in the cells was then quantified using ICP-MS. […]
# HT-29 cells [4] = assay: DCF assay, ROS production; assay type: cell-based, human; settings: HT-29, peptide 1 mM, with or without Pb(II) 0.2 mM
# Method: ROS production determination in the presence of Pb(II) ions […]
# the cells were allowed to adhere overnight.
# To all wells but the positive control wells, 5 µL of 2.2 mM Pb(NO3)2 were added (final concentration 0.2 mM). 5 µL of H2O were added to the positive control wells. 1 h after, 5 µL of 8 […]
# control wells containing no metal and the negative control wel ls containing metal but no peptide, […]
# removed, the wells were washed with PBS , and 50 µL of PBS were added to each well. 6.75 µL of 2',7'-dichlorodihydrofluorescein diacetate (H 2DCF-DA) (2.1 mM in DMSO) were added (final concentration 0.25 mM) and gently mixed. The plates were incubated for an additional 1 h.
# Fluorescence was then measured at an excitation of 490 nm and an emission of 520 nm.
# ROS production determination in the absence of Pb(II) ions […]
# concentrations of 1 mM. To the positive control well s, 5 µL of H2O were added.
# The plates were incu bated at 37 °C, and 5% CO2 for additional 23 h, after which the medium was […]
# [5] = assay type: in vitro ADME; settings: human blood serum (Sigma Aldrich), 100 µM peptide, 37 °C, aliquots from 0 min up to 48 h, precipitation with CH3CN:H2O 1:1, LCMS
# Method: (§1) To examine this, we used the Ellman's test,[43] where 8 was incubated in H2O, and the Ellman's reagent was added at given time points (Figure S9).[22] While 8 was started to be slightly oxidized within the first 2 h and was steadily forming disulfide bonds, after 24 h, roughly 40 % of the thiols were still reduced, enabling metal coordination within the experimental time frame of our in vitro study.
# 9 Stability in human blood serum
# A freshly prepared solution of 8 (in H2O) was added to the human blood serum (HBS, purchased from Sigma Aldrich) to reach a final peptide concentration of 100 µM and a volume of 1 mL.
# Samples were pipetted carefully up and down three times and incubated at 37 °C. Aliquots (50 µL) were taken periodically, starting from the addition of the serum (0 min) and continuing after 1 h up to 48 h. Aliquots were poured into a mixture of CH3CN:H2O (1:1; 200 µL) to precipitate the HBS proteins. The samples were cooled on ice for 30 min and centrifuged at 4’4 00 rpm for 10 min. The supernatant was analyzed by LCMS.
# Figure S10. Stability of 8 in human blood serum.
# [6] = Ellman's test, oxidation of thiols to disulfide; assay type: physicochemical; settings: 8 100 µM in H2O with 10% 1 M Tris buffer pH 8.0, RT, DTNB 300 µM, absorbance 412 nm
# Method: as §1
# Calibration curve: to a 96-well plate with freshly-prepared solutions of Ac-Cys-OMe (12.5-200 µM) in H2O supplemented with 10% 1 M Tris buffer pH 8.0, a fresh solution of Ellman’s reagent (5,5'-dithiobis-(2-nitrobenzoic acid; DTNB; final concentration of 300 µM in H2O supplemented with 12.5 mM sodium acetate) was added. The absorbance of each well at 412 nm was then determined. The average and standard deviation within six wells containing the same AA concentration were calculated and linearly plotted using Origin software .
# Seven 96-well plates were prepared identically with fresh solutions of 8 (100 µM) in H2O supplemented with 10% 1 M Tris buffer pH 8.0, where each condition is replicated in 3 wells. […] The absorbance of each well at 412 nm was then determined , and the concentration of free thiol per well was calculated according to the cal ibration curve. For each time frame, the average and standard deviation were calculated. […]
Compound,"effect of compound alone on cell viability, in words (HT-29 cells [1])","recovery of Pb-poisoned cells, in words (Pb-poisoned HT-29 cells [2])",viability of Pb-poisoned cells relative to the negative control (recovery) (Pb-poisoned HT-29 cells [2]),other results
"O=C(O)CN(CCN(CC(=O)O)CC(=O)O)CC(=O)O [EDTA, ethylenediaminetetraacetic acid, reference compound]",slight toxicity,,,
C[C@@H]1NC(=O)CNC(=O)[C@H](CS)NC(=O)CC[C@@H](C(=O)O)NC(=O)[C@H](C)NC(=O)CNC(=O)[C@H](CS)NC(=O)CC[C@@H](C(=O)O)NC1=O [peptide 2] (cyclo(A[γGlu]CGA[γGlu]CG)),,enhanced viability of cells treated with 1 mM of 2 compared with lin2,,
C[C@@H]1NC(=O)CNC(=O)[C@H](CS)NC(=O)C[C@@H](C(=O)O)NC(=O)[C@H](C)NC(=O)CNC(=O)[C@H](CS)NC(=O)C[C@@H](C(=O)O)NC1=O [peptide 5] (cyclo(A[βAsp]CGA[βAsp]CG)),,least active one,,
NC(=O)C[C@@H]1NC(=O)CNC(=O)[C@H](CS)NC(=O)CC[C@@H](C(=O)O)NC(=O)[C@H](CC(N)=O)NC(=O)CNC(=O)[C@H](CS)NC(=O)CC[C@@H](C(=O)O)NC1=O [peptide 8] (cyclo(CGN[γGlu]CGN[γGlu])),positively affect cell viability,,approximately 2.5 times,"supernatant-to-cells ratio of Pb compared with cells not treated with peptide, in words (Pb-poisoned HT-29 cells [3]; 8 added pre- or post-poisoning): reduced by approximately half; SN/C, ratio of Pb content in ppb in supernatants and cells (Pb-poisoned HT-29 cells [3]; condition 3: HT-29 poisoned with 0.2 mM Pb(NO3)2 1 h, then 1 mM 8, further 23 h): 56.3 ± 27.5; SN/C, ratio of Pb content in ppb in supernatants and cells (Pb-poisoned HT-29 cells [3]; condition 4: HT-29 given 1 mM 8 for 1 h, then 0.2 mM Pb(NO3)2, further 23 h): 43.3 ± 10.23; oxidative stress (ROS) compared with untreated cells, in words (HT-29 cells [4]): decreased the oxidative stress compared to untreated cells; time stable in human blood serum [5]: at least 48 h; time within which oxidation started [6]: ≤ 2 h; thiols still reduced ([6]; after 24 h, 3 wells): roughly 40%"
O=C1CC[C@@H](C(=O)O)NC(=O)[C@H](CS(=O)(=O)O)NC(=O)CNC(=O)[C@H](CS)NC(=O)CC[C@@H](C(=O)O)NC(=O)[C@H](CS(=O)(=O)O)NC(=O)CNC(=O)[C@H](CS)N1 [peptide 9] (cyclo(CG[Cya][γGlu]CG[Cya][γGlu])),no toxicity at all,,approximately 2.5 times,
